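In this assay, cells in 96-well plates receive the compound at five concentrations for 48 hours. Endpoints are linearly interpolated between the surrounding concentrations. TGI: concentration producing complete growth inhibition.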
What was measured:
Assay in all cases: NCI anticancer screen, dose series, 48 h
786-0 renal = test system: 786-0 renal
A498 renal = test system: A498 renal
A549 NSCLC = test system: A549 NSCLC
ACHN renal = test system: ACHN renal
BT-549 breast = test system: BT-549 breast
CCRF-CEM leukemia = test system: CCRF-CEM leukemia
EKVX NSCLC = test system: EKVX NSCLC
HCC-2998 colon = test system: HCC-2998 colon
HOP-92 NSCLC = test system: HOP-92 NSCLC
MDA-MB-231 breast = test system: MDA-MB-231 breast
MOLT-4 leukemia = test system: MOLT-4 leukemia
NCI-H460 lung = test system: NCI-H460 lung
NCI-H522 lung = test system: NCI-H522 lung
OVCAR-5 ovarian = test system: OVCAR-5 ovarian
OVCAR-8 ovarian = test system: OVCAR-8 ovarian
SF-268 CNS = test system: SF-268 CNS
SF-295 CNS = test system: SF-295 CNS
SR leukemia = test system: SR leukemia
HL-60(TB) leukemia = test system: HL-60(TB) leukemia
T-47D breast = test system: T-47D breast

SMILES	TGI (786-0 renal)	TGI (A498 renal)	TGI (A549 NSCLC)	TGI (ACHN renal)	TGI (BT-549 breast)	TGI (CCRF-CEM leukemia)	TGI (EKVX NSCLC)	TGI (HCC-2998 colon)	TGI (HOP-92 NSCLC)	TGI (MDA-MB-231 breast)	TGI (MOLT-4 leukemia)	TGI (NCI-H460 lung)	TGI (NCI-H522 lung)	TGI (OVCAR-5 ovarian)	TGI (OVCAR-8 ovarian)	TGI (SF-268 CNS)	TGI (SF-295 CNS)	TGI (SR leukemia)	TGI (HL-60(TB) leukemia)	TGI (T-47D breast)
CCC(C)C(NC(=O)c1c2ccccc2nc2ccccc12)C(=O)O (configuration not stated)	> 100 µM	> 100 µM	> 100 µM	> 100 µM	94.1 µM	> 100 µM	> 100 µM	> 100 µM	> 100 µM	> 100 µM	> 100 µM	> 100 µM	> 100 µM	> 100 µM	> 100 µM	> 100 µM	> 100 µM	> 100 µM		
O=C1CCCCCCCCCCC1CN(Cc1ccccc1)Cc1ccccc1 (configuration not stated)	> 100 µM		> 100 µM	> 100 µM	> 100 µM	50.2 µM	> 100 µM	85.8 µM	> 100 µM	> 100 µM	62.5 µM		> 100 µM	> 100 µM	> 100 µM	> 100 µM	> 100 µM	> 100 µM	76.4 µM	63.9 µM
O=C(/C=C/c1ccc(O)cc1)c1cc(O)cc(O)c1	30.6 µM	28.1 µM	30.6 µM	20.2 µM	29.8 µM	35.1 µM	32.5 µM		31.9 µM	30.4 µM	45.3 µM		18.1 µM	29 µM	27.6 µM	54.3 µM	30.6 µM		> 100 µM	33 µM
O=C(Nc1ccc(N2C(=O)CSC2c2cccs2)cc1)c1ccc(N2C(=O)CSC2c2cccs2)cc1 (configuration not stated)	> 100 µM		> 100 µM	> 100 µM	> 100 µM	> 100 µM	> 100 µM	> 100 µM	> 100 µM	> 100 µM	> 100 µM	> 100 µM	> 100 µM	> 100 µM	> 100 µM	> 100 µM	> 100 µM			> 100 µM
CCN(CC)CCNc1ccc2ncn3c4c(OC)ccc(=O)c4c(O)c1c23	> 100 µM		> 100 µM	> 100 µM	> 100 µM	> 100 µM	> 100 µM	> 100 µM	> 62.1 µM	> 100 µM	> 24.6 µM	> 100 µM	> 39.7 µM	> 92.7 µM	> 100 µM	> 95.2 µM	> 100 µM	> 31.6 µM	> 100 µM	> 100 µM
COc1cc(S(=O)(=O)Nc2ccc(-c3csc(/N=C\C=C\c4ccccc4)n3)cc2)ccc1Cl	> 100 µM	50.5 µM	> 100 µM	> 100 µM	> 100 µM	50.4 µM	> 100 µM	> 100 µM	75.9 µM		> 100 µM	> 100 µM	> 100 µM	> 100 µM	> 100 µM	> 100 µM	> 100 µM	> 100 µM	> 100 µM	80.7 µM
Cc1cn(CCCCOC(=O)NC(CCCNC(N)=O)C(=O)O)c(=O)[nH]c1=O (configuration not stated)	> 100 µM		> 100 µM	> 100 µM	> 100 µM	> 100 µM	> 100 µM	> 100 µM	> 100 µM	> 100 µM	> 100 µM	> 100 µM		> 100 µM	> 100 µM	> 100 µM	> 100 µM	> 100 µM	> 100 µM	> 100 µM
Nc1ccc(-c2nc3ccccc3s2)cc1F	50.2 µM	4.46 µM	> 100 µM	74.4 µM	> 100 µM	> 100 µM	11.8 µM		> 100 µM	79 µM	31.9 µM		> 100 µM		> 100 µM	> 100 µM	94 µM	53.9 µM		
CN(C)C(=O)C(F)(F)C(c1ccc(C(F)(F)F)cc1)C1C(=O)N(C)C(=O)N(C)C1=O (configuration not stated)	> 100 µM	> 100 µM	> 100 µM	> 100 µM	> 100 µM	> 100 µM	> 100 µM	> 100 µM	> 100 µM	> 100 µM		> 100 µM		> 100 µM		> 100 µM	> 100 µM			> 100 µM
COC(=O)c1cn(CCCCO)nn1	> 100 µM		> 100 µM	> 100 µM	> 100 µM	> 100 µM	> 100 µM	> 100 µM	> 100 µM	> 100 µM	> 100 µM	> 100 µM			> 100 µM	> 100 µM	> 100 µM	> 100 µM		> 100 µM
